Values joined by “and” are separate entries in the source; they are usually repeats but may differ in a detail not shown here. Equal values may be shown once. “Also recorded” adds a separate entry of the source.
Tests used:
HSV1 [1] = test: Real time PCR of HSV1 glycoprotein D; type: cell-based; settings: for fold difference in the amount of glycoprotein D DNA vs HSV1/Vero: Ct based; for inhibits HSV1: FIG. 10
Experimental: A set of primer that primes HSV1 glycoprotein D was designed for use in Real time polymerase chain reaction. This set includes 5″-[…]-3′ (SEQ ID NO:20) for the forward and 5′[…]-3′ (SEQ ID NO:21) for the reverse. Each tube (except the negative controls-no DNA) contained […] of Fast SYBR green master mix (ABI Fast SYBR Green Master Mix), 1 μL of forward primer, 1 μL of reverse primer, […] of genomic DNA and 6 μL of […]. The samples were run on an ABI StepOnePlus Real-Time PCR System. The Run methods were: a holding stage at 95° C. for 5 minutes followed by 40 cycles of denaturation at 95° C. for 1 minute, annealing at 60° C. for 1 minute and extension at 72° C. for 30 seconds. Next, the melting curve stage included 95° C. for 15 seconds, followed by 60° C. for 1 minute, and 95° C. for 15 seconds.
Cells were grown on 60 mm plates and allowed to reach confluency. Cells were then infected with HSV I treated and HSV1 non-treated for 1 hour at 37° C. and 5% CO2. After absorption time, cells were washed with PBS and media was added to the plates. After 12 hours, cells were trypsinized and DNA was extracted using the DNeasy Blood and Tissue Handbook (Qiagen 2006). DNA concentration was then measured by using a Nanodrop Specrophotometer.
The process of real time PCR works by collecting fluorescence data at the end of each cycle of the reaction. The SYBR green dye used in the experiment binds to the double stranded PCR product causing the PCR product to fluoresce. As the reaction continues the instrument recalls the threshold for each sample. The threshold cycle (Ct) is the critical cycle at which the first significance increase in fluorescence is detected. Once the PCR cycles ended, the data were collected and the Ct values for each of the samples were analyzed and the relative quantity (RQ) of fluorescence was reported. The standard for comparing Ct values is that a difference in one Ct is equivalent to a two-fold difference in the amount of DNA. […] of DNA was used for all samples; cells only, HSV1/Vero, and EGCG-ester HSV1/Vero.

Vero cells [2] = test: Cytotoxicity assay, morphological and proliferation changes by microscope; type: cell-based, green monkey; settings: for change of cell morphology: 12.5 to 75 μM; for maximum nontoxic concentration: Vero cells; for effect on the cells: higher concentration
Experimental: Cells were studied for morphological and proliferation changes 48 hrs later using an ACCU-Scope 3002 microscope with a camera attached. […] Cells were studied for morphological and proliferation changes 24 hrs later using an ACCU-Scope 3002 microscope with a camera attached. In order to determine the proper concentrations of EGCG and EGCG-ester to be used for treating HSV1, the effect of polyphenols on the cells were studied. […] In this experiment, the polyphenols were added at the same time as the cells were plated and were not removed subsequently. The effect of different concentrations of EGCG-ester on Vero cells was also observed at 24 hrs. […] EGCG-ester was then aspired, and cells were observed 24 hours later.

HSV1 [3] = test: Fluorescence microscopy of GFP-HSV1 lytic cycle in Vero cells; type: cell-based; settings: for virus replication and formation of virions: virus treated with 100 μM
Experimental: Cells were grown on glass cover slips and allowed to reach confluence. They were then infected with either control HSV or previously treated HSV for 1 hour. Time course studies were performed in which the virus was allowed to adsorb for 1 hour and then aspirated. Cells were washed with PBS and media was added to each well. After a period of 8, 10, and 12 hours, cells were then fixed with a 1:1 acetone and methanol solution and visualized under a Zeiss Axiovision fluorescence microscope using differential interference contrast settings.
HSV1/Vero cells were used as positive controls and Vero cells were used as negative control. 75 μM EGCG ester-HSV1/Vero cells were also monitored and compared to controls. GFP-HSV1, DAPI stained nucleus and lysosome stain were used to identify cytopathic effects on Vero cells. The course study was performed in triplicates.

HSV1 [4] = test: Viral titer study using plaque assay, HSV virions pre-treated with polyphenol, Vero cells; type: cell-based
Experimental: Vero cells were plated on 6 well plates and allowed to reach confluence. HSV virions were treated for 1 hour with the respective concentration of polyphenols (12.5, 25, 50, 75, 100 μM) prior to cell infection. Cells were then infected with HSV and allowed to adsorb for 1 hour. Viruses that had not been absorbed were then aspirated. Plates were then overlaid with a nutrient medium-containing agar. Plaques were visualized by staining cells with crystal violet, observed, and counted within 50 hours.
Viral titer was determined to study the effect of 50 μM of EGCG and EGCG-ester on the viral particle production by using plaque assay. Serial dilutions of viral lysates were performed from 10^−1 to 10^−7 and cells were then infected respectively with the dilutions.
In order to obtain the minimum inhibitory concentration of EGCG-ester on HSV1, different concentrations (12.5, 25, 50, 75 μM) of EGCG-ester were used at lower dilution of viral lysate (10^−1 and 10^−2).

Vero cells [5] = test: Cell proliferation assay (MTS tetrazolium, absorbance 490 nm); type: cell-based, green monkey; settings: for absorbance at 490 nm (single reading): 1 hour, read 24 hours later; for inhibition of cell proliferation: up to 75 μM, compared to controls
Experimental: A cell proliferation kit (G5421, Promega Corp.) was used. This is a colorimetric method for determining cell proliferation. This kit contains a tetrazolium compound and an electron-coupling reagent (phenazine methosulfate). Only live cells will be able to bioreduce the tetrazolium compound into soluble formazan. Thus, the amount of formazan formed and measured at 490 nm absorbance is directly proportional to the number of live cells. Cells were plated into 96 well plates and after 24 hrs they were treated with different concentrations (12.5, 25, 50, 75, 100 μM) of polyphenols and allowed to adsorb for 1 hour. Polyphenols were then aspirated and 100 μL of fresh DMEM was added back to each well. 24 hours later, 20 μL of the MTS reagent was added to every 100 μL of cells in media. The plates were incubated at 37° C. and 5% CO2 for 4 hours, and then the absorbance was read using a plate reader. […] In this study, cell proliferation was examined under the same conditions as described before. Each experiment was assayed in triplicates, and absorbance of this colorimetric assay was recorded at 490 nm using a 96 well ELISA plate reader.

[6] = 75 μM, 8 to 12 hours post infection

Row | SMILES | fold difference in the amount of glycoprotein D DNA vs HSV1/Vero (HSV1 [1]) | inhibits HSV1 (HSV1 [1]) | change of cell morphology (Vero cells [2]) | maximum nontoxic concentration (Vero cells [2]) | effect on the cells (Vero cells [2]) | virus replication and formation of virions (HSV1 [3]) | absorbance at 490 nm, Mean (Vero cells [5]; 12.5 μM) | absorbance at 490 nm (single reading) (Vero cells [5]; 12.5 μM) | absorbance at 490 nm, Mean (Vero cells [5]; 25 μM) | absorbance at 490 nm (single reading) (Vero cells [5]; 25 μM) | absorbance at 490 nm, Mean (Vero cells [5]; 50 μM) | absorbance at 490 nm (single reading) (Vero cells [5]; 50 μM) | absorbance at 490 nm, Mean (Vero cells [5]; 75 μM) | absorbance at 490 nm (single reading) (Vero cells [5]; 75 μM) | absorbance at 490 nm, Mean (Vero cells [5]; 100 μM) | absorbance at 490 nm (single reading) (Vero cells [5]; 100 μM) | inhibition of cell proliferation (Vero cells [5]) | also measured
1 | O=C(O[C@@H]1Cc2c(O)cc(O)cc2O[C@@H]1c1cc(O)c(O)c(O)c1)c1cc(O)c(O)c(O)c1 [EGCG, (−)-epigallocatechin-3-gallate, reference compound] | 32 fold | 95% | do not induce a change cell morphology | 75 µM | not significantly affected | not able to replicate and form more virions | 0.607 | 0.615 and 0.606 and 0.601 | 0.621 | 0.628 and 0.620 and 0.616 | 0.603 | 0.632 and 0.587 and 0.589 | 0.647 | 0.645 and 0.652 | 0.698 | 0.688 and 0.677 and 0.730 | not inhibiting cell proliferation to a great extent | morphological changes (Vero cells [2]; 12.5-100 μM, added when cells were plated, not removed, observed at 48 hrs): no morphological changes; fold decrease in titer / plaque formation vs HSV1/Vero (HSV1 [4]; 50 μM): 10 fold; viral titer (HSV1 [4]; HSV1 treated with 50 μM polyphenol before infection of Vero cells): 1×10^5 PFU/ml
2 | CCCCCCCCCCCCCCCC(=O)Oc1c(O)cc([C@H]2Oc3cc(O)cc(O)c3C[C@H]2OC(=O)c2cc(O)c(O)c(O)c2)cc1O [EGCG-ester] | 256 fold | 99.46% | do not induce a change cell morphology | 75 µM | not significantly affected | not able to replicate and form more virions | 0.627 | 0.642 and 0.647 and 0.574 | 0.647 | 0.668 and 0.651 and 0.621 | 0.676 | 0.663 and 0.698 and 0.667 | 0.653 | 0.582 and 0.689 and 0.687 | 0.717 | 0.691 and 0.741 and 0.719 | not inhibiting cell proliferation to a great extent | cell morphology (Vero cells [2]; 100 μM, added when cells were plated, not removed, 48 hrs): affected to a certain extent; cell morphology (Vero cells [2]; 12.5-100 μM for 1 hour on cells plated 24 hours, observed 24 hours later): not greatly affected; inhibition of HSV1 infections (HSV1 [3]; [6]): able to inhibit HSV1 infections; visible viral particles in infected cells (HSV1 [3]; [6]): almost no virions; GFP expression in green fluorescence images (HSV1 [3]; 75 μM, 8 hrs post infection): almost none; reduction of HSV1 ability to form plaques (HSV1 [4]; 50 μM EGCG-ester and above, viral lysate dilution 10^−1 and 10^−2): > 99%; plaque (PFU) formation (HSV1 [4]; 50 μM and above): no plaques observed; also recorded: completely inhibits PFU formation; plaque formation (HSV1 [4]; 50 μM, viral lysate dilutions 10^−1 to 10^−7): no plaque formation

— US9446017B2, “Compositions and methods for treating herpes simplex virus” (Augusta University Research Institute, Inc., priority 2005, dated 2016)
